From patent US6399560B1, “Biocide and biocidal cloth containing a metal pyridinethione and additional biocide” (Novapharm Research (Australia) Pty Ltd., priority 1997, dated 2002)
Where two headings read alike, the source gives them in different places.

Assays:
gram negative bacteria = details: cited from earlier work
[1] = cited from earlier work; for Oxidising Agents: compatibility with oxidising agents; for Reducing Agents: compatibility with reducing agents
[2] = in vivo; cited from earlier work
[3] = system: gram positive microorganisms; details: cited from earlier work
[4] = acute toxicity, cited from earlier work; for LD50 Subcut: subcutaneous
[5] = cited from earlier work
Pseudomonas Aeruginosa = experiment: Effect of biocide-impregnated fabric on Pseudomonas Aeruginosa population; assay type: cell-based; details: zinc pyridinethione 0.85%, dichlorophen 0.85%, combination 0.5% + 0.5% of dry fabric weight
Source text: A biocidal cloth according to the invention was subjected to a standard quantitative test for microorganisms, “Assessment of Antibacterial Finishes on Textile Materials”: Test Method AATCC 100-1993. This test is specifically designed for the assessment of the biocidal properties of fabric treatments. These treatments are designed to kill microorganisms within the fabric, rather than on surfaces which come into contact with the fabric.
The weights are given relative to the weight of dry fabric.

Fish = details: in vivo; cited from earlier work

In the case of zinc pyridinethione, the “Effectiveness against gram negative” value (gram negative bacteria) is listed as “limited effectiveness”, the “Oxidising Agents” value [1] is listed as “decomposes” and the “Reducing Agents” value [1] is listed as “decomposes”. The Teratogenicity [2] was “reduced wt”, the “Effectiveness against gram positive” value [3] was “effective” and the “LD 50 IV” value [4] was 10 mg/kg. For the same compound, the “LD50 Dermal” value [4] was 100 mg/kg, the “LD50 Oral” value [4] was 160 mg/kg and the “LD50 Subcut” value [4] was 730 mg/kg. The Irritancy dermal ([5]; dermal / skin) was “Moderate dermal”, the Irritancy dermal ([5]; dermal / skin, listed as zinc pyridinethione) was “mildly irritating” and the Irritancy eye ([5]; eye) was “Severe eye”. For the same compound, the Irritancy eye ([5]; eye, listed as zinc pyridinethione) was “severely so”, the “Change in bacterial population, DAY 1 (positive = increase, negative = decrease)” value (Pseudomonas Aeruginosa) was “+0.845” and the “Change in bacterial population, DAY 2 (positive = increase, negative = decrease)” value (Pseudomonas Aeruginosa) was “+0.35”.

For Oc1cc(Cl)ccc1Oc1ccc(Cl)cc1Cl [Triclosan, triclosan], the “Effectiveness against gram negative” value (gram negative bacteria) is listed as “some grain negative activity” and the “Effectiveness against gram positive” value [3] is listed as “particularly effective”.

For Oc1ccc(Cl)cc1Cc1cc(Cl)ccc1O [DICHLOROPHEN, dichlorophen], the “Effectiveness against gram negative” value (gram negative bacteria) is given as “some grain negative activity”, the “Oxidising Agents” value [1] is given as “incompatible” and the “Reducing Agents” value [1] is given as “no effect”. For the same compound, the Teratogenicity [2] was “no effect”, the “Effectiveness against gram positive” value [3] was “particularly effective” and the “LD 50 IV” value [4] was 17 mg/kg. The “LD50 Dermal” value [4] was 5000 mg/kg, the “LD50 Oral” value [4] was 3300 mg/kg and the “LD50 Subcut” value [4] was over 3000 mg/kg. For the same compound, the Irritancy dermal ([5]; in vivo) was “Slight dermal”, the Irritancy eye ([5]; in vivo) was “Moderate eye” and the “Fish Toxicity” value (Fish) was 23 mg/lt. For the same compound, the “Change in bacterial population, DAY 1 (positive = increase, negative = decrease)” value (Pseudomonas Aeruginosa) was “+0.439” and the “Change in bacterial population, DAY 2 (positive = increase, negative = decrease)” value (Pseudomonas Aeruginosa) was “+2.12”.
